Values joined by “and” are separate entries in the source; they are usually repeats but may differ in a detail not shown here. Equal entries are not always repeated.
What was measured:
[1] = tested on: hCAP18; experiment: Expression of hCAP18 mRNA in human primary keratinocytes by Real-Time PCR; type: cell-based
Procedure: Human neonatal epidermal keratinocytes were obtained from Cascade Biologics, Inc. (Lot # 1C1145; Port-land, OR) and cultured in EpiLife serum-free keratinocyte growth medium (Cascade Biologics, Inc.) containing growth supplements and a calcium concentration of 0.06 mM. Cells at passage 3 were allowed to grow for three days to approximately 60% confluence. For calcium switch experiments, 1.5 mM CaCl2 (added from a 1 M stock solution) was added to the plates and after 48 hours the cells were regarded as differentiated (observed as an induction of mRNA expression of the two keratinocyte markers transglutaminase and cellular retinoic acid-binding protein II). The compounds assayed were 25-hydroxy-cholecalciferol (25-OH-D3), 1,25-dihydroxycholecalciferol (1,25-(OH)2-D3), and calcipotriol/MC 903 (Leo Pharmaceutical, Denmark). Their effect on hCAP18 expression was monitored by quantitivate PCR analysis.
Keratinocytes were grown as above and treated with said compounds for 4 h. RNA was extracted with the RNeasy kit (Qiagen) and reverse transcribed with a first strand synthesis kit (Amersham-Pharmacia). RNA was quantified by Real-Time PCR on an ABI Prism 7700 (Applied Biosystems) using 5 ng of cDNA according to standard protocols. The samples were evaluated in triplicates. Sequences were 5′-[…]-3′ and 5′-[…]-3′ for the primers, and 5′-[…]-3′ for the fluorigenic probe. The samples were normalized by quantification of 18S-RNA (Assay on Demand, Applied Biosystems).
To assess the specificity of the vitamin D regulation on the hCAP18 gene, the vitamin D3 precursor 7-dehydrocholesterol (7-DHC) was assayed at a concentration of 1 μM as in Example 1. 7-DHC had no effect on hCAP18 expression. […] Assays were performed and measured as above. The effect of 1,25-(OH)2-D3 is shown for comparison.

[2] = tested on: hCAP18 promoter; experiment: Stimulation of the hCAP18 promoter at different concentrations (FIG. 4); type: cell-based, human; conditions: tested at 1, 10, 100 and 1000 nM
Procedure: To assess whether physiological levels were sufficient to induce the stimulation of the hCAP18 promoter, the study was performed at the different concentrations 1, 10, 100 and 1000 nM of 1,25-(OH)2-D3 and 25-OH-D3 (FIG. 4). […] The physiologic serum concentration of 25-OH-vitamin D3 is between 20 nM and 125 nM, whereas the 1,25-(OH)2-D3 is present in pM concentration. A dosage form of a vitamin D compound for topical administration includes for instance about 1-100, preferably 5-50 μg vitamin D compound per gram composition.

[3] = tested on: hCAP18; experiment: hCAP18/LL-37 expression in skin of healthy volunteers after topical application; type: in vivo, human; conditions: 0.002% solution topical, 4 days, three healthy volunteers
Procedure: To assay whether 1,25-(OH)2-D3 stimulated hCAP18 expression in vivo, we applied 1,25-(OH)2D3 to the skin of three healthy individuals.
A stock solution of 4 mM 1,25-dihydroxyvitamin D3 in isopropanol was diluted in ethanol:propylene glycol [70:30] to a final vitamin D concentration of 0.002%. The vehicle containing ethanol 96% and propylene glycol [70:30] with 0.5 mg/ml BHT (butylated hydroxy toluene) served as control. In a room with dim light, the vitamin D and the control were locally applied to the skin (the right and left upper arm respectively) of three healthy volunteers. The test area of 2×2.5 cm on each arm was cleaned with saline solution (NaCl 0.9) before application. Evaporation time for the solutions of vitamin D and the vehicle varied between 8 and 15 minutes. The tested area was then covered with plastic film and band-aid (Gladpack, Melolin and Mefix). After 4 days the band-aid and the plastic film was removed and the test area was rapidly cleaned with 40% ethanol. Punch biopsies (4 mm) were obtained from the test area (after infiltration anesthesia with 2-3 ml Xylocaln with epinefrin) and were frozen instantly. […] Protein concentrations were measured by Protein Assay Kit (Bio-Rad Laboratories, Hercules Calif.) based on the Bradford method (Bradford, 1976) and samples were diluted to a final protein concentration of 1 mg per ml. […]

[4] = tested on: hCAP18; experiment: hCAP18 mRNA in skin of atopic dermatitis patients, Real-Time PCR; type: in vivo, human; parameters: hCAP18 mRNA, Non-lesional skin, Treated / hCAP18 mRNA, Lesional skin, Treated: unit not given here; conditions: 0.002% topical, 4 days, one patient per row
Procedure: To assay whether 1,25-(OH)2-D3 stimulated hCAP18 expression in atopic dermatitis, we applied 1,25-(OH)2-D3 on the skin of four individuals, two females and two men, with active atopic dermatitis. The patients had suffered from the eczema for 11-30 years. The diagnosis was made by a dermatologist. A stock solution of 4 mM 1,25-(OH)2-D3 in isopropanol was diluted in ethanol:propylene glycol (70:30) to a final concentration of 0.002%. To prevent deactivation of 1,25-(OH)2-D3, the procedure was performed in a room with dim light. The 1,25-(OH)2-D3 were locally applied on lesional and non-lesional skin area of patients. The skin surface was cleaned with saline solution (NaCl 0.9) before application. The treated skin area was measured to 2×2.25 cm. Evaporation time for the solutions of 1,25-(OH)2-D3 varied between 8 and 15 minutes. The skin area was then covered with plastic film and band-aid (Quickpack: Haushalt und Hygiene GmbH, Renningen, Germany; Melolin: Smith and Nephew, Hull, UK; Mefix: Molnlycke A B, Gothenburg, Sweden). After 4 days the band-aid and the plastic film were removed and the skin areas were rapidly cleaned with 40% ethanol. Punch biopsies (4 mm) were obtained from the treated skin areas (after infiltration anesthesia with 2-3 ml Xylocaln with epinephrin) and frozen instantly. On the first day, control biopsies were also obtained from non-treated lesional and non-lesional skin and the tissues were snap-frozen as described. RNA was extracted and hCAP18 mRNA expression determined by Real-Time PCR as described above in Example 1.

[5] = tested on: dermatitis; conditions: topical, 0.03-1.0 μg/g of composition; type of dermatitis not stated; cited from earlier work
[6] = tested on: hCAP18; conditions: keratinocytes and leukocytes in vitro; cited from earlier work
[7] = tested on: acute wounds; conditions: Wistar rats, intraperitonial; cited from earlier work
[8] = tested on: angiogenesis; conditions: cited from earlier work

C=C1/C(=C\C=C2/CCC[C@]3(C)[C@@H]([C@H](C)/C=C/[C@H](C)C(C)(C)O)CC[C@@H]23)C[C@@H](O)C[C@@H]1O [1,25-(OH)2-D2, 1,25-dihydroxyergocalciferol]
activity on hCAP18 expression compared with 1,25-(OH)2-D3 ([1]; concentration not given): activity comparable to 1,25-(OH)-D3

C=C1/C(=C\C=C2/CCC[C@]3(C)[C@@H]([C@H](C)CCCC(C)(C)O)CC[C@@H]23)C[C@@H](O)C[C@@H]1O [1,25-(OH)2-D3, 1,25-dihydroxy-cholecalciferol]
level down to which a substantial portion of stimulation remained [2]: 10 nM | expression of hCAP18 and production of LL-37 in human skin in vivo [3]: Up-Regulates | Increase (treated/untreated), Lesional skin ([4]; lesional skin): 5638% and 79756% and 977% and 220% | hCAP18 mRNA, Lesional skin, Treated ([4]; lesional skin): 1093 and 539 and 64 and 29 | Increase (treated/untreated), Non-lesional skin ([4]; non-lesional skin): 13104% and 520% and 841% and 459% | hCAP18 mRNA, Non-lesional skin, Treated ([4]; non-lesional skin): 739.4 and 24.8 and 24.2 and 8.1 | effect on dermatitis [5]: marked effect | expression of hCAP18 [6]: directly induces

C=C1/C(=C\C=C2/CCC[C@]3(C)[C@@H]([C@H](C)CCCC(C)C)CC[C@@H]23)C[C@@H](O)C[C@@H]1O [1α-OH-cholecalciferol, 1-alpha-hydroxycholecalciferol]
effect on dermatitis [5]: marked effect

CC(C)CCC[C@@H](C)[C@H]1CC[C@H]2C3=CC=C4C[C@@H](O)CC[C@]4(C)[C@H]3CC[C@]12C [7-DHC, 7-dehydrocholesterol]
effect on hCAP18 expression ([1]; 1 μM, as in Example 1): no effect

C=C1CC[C@H](O)C/C1=C/C=C1\CCC[C@]2(C)[C@@H]([C@H](C)CC[C@@H](O)C(C)(C)O)CC[C@@H]12 [24,25-dihydroxycholecalciferol]
effect on dermatitis [5]: no effect

C=C1CC[C@H](O)C/C1=C/C=C1\CCC[C@]2(C)[C@@H]([C@H](C)CCCC(C)(C)O)CC[C@@H]12 [25-OH-D3, 25-hydroxy-cholecalciferol]
level down to which a substantial portion of stimulation remained [2]: 10 nM

[Ca+2].[Cl-].[Cl-] [calcium, CaCl2]
increase of hCAP18 expression by induction of differentiation ([1]; 1.5 mM CaCl2, 48 hours, keratinocytes): about 1.5 fold

C=C1CC[C@H](O)C/C1=C/C=C1\CCC[C@]2(C)[C@@H]([C@H](C)CCCC(C)C)CC[C@@H]12 [cholecalciferol]
effect on dermatitis [5]: no effect | re-epithelization of acute wounds [7]: accelerates | wound breaking strength [7]: increases

C=C1CC[C@H](O)C/C1=C/C=C1\CCC[C@]2(C)[C@@H]([C@H](C)/C=C/[C@H](C)C(C)C)CC[C@@H]12 [ergocalciferol]
effect on dermatitis [5]: no effect

LL-37/hCAP18: endogenous 37 amino acid antimicrobial peptide released by proteolytic cleavage of hCAP18 (LLGDFFRKSKEKIGKEFKRIVQRIKDFLRNLVPRTES; Antibacterial peptide LL-37; UniProt P49913 134-170, looked up)
angiogenesis [8]: induces functionally important angiogenesis

Source: patent US20080038374A1, “New Use” (Lipopeptide AB, priority 2004, published 2008)
